# Read-outs that look alike come from different tables or passages of the source.
# Test system: C. parvum strain UGA1
# Assay: C. parvum growth inhibition assay (Nluc luminescence in HCT-8 cells)
# Format: cell-based, Cryptosporidium parvum
# Conditions: Cryptosporidium parvum; for inhibition at 1 µM / inhibition at 10 µM: HCT-8; for inhibition at 1 µM: read-out: % inh @ 1 uM C. parvum; for inhibition at 10 µM: read-out: % inh @ 10 uM C. parvum; for EC50: HCT-8, 48 h, C. parvum growth inhibition in HCT-8 cells, 48 hours, 6 concentrations 10-0.04 μM
# Experimental: C. parvum GROWTH INHIBITION ASSAYS
# C. parvum growth inhibition was performed as described in Hulverson M A, Vinayak S, Choi R, Schaefer D A, Castellanos-Gonzalez A, Vidadala R S R, Brooks C F, Herbert G T, Betzer D P, Whitman G R, Sparks H N, Arnold S L M, Rivas K L, Barrett L K, White A C Jr, Maly D J, Riggs M W, Striepen B, Van Voorhis W C, Ojo K K. Bumped-Kinase Inhibitors for Cryptosporidiosis Therapy. J Infect Dis. 2017 Apr. 15; 215(8):1275-1284.
# C. parvum strain UGA1 […] (ATCC, Manassas, VA) were prepared as described below. HCT-8 cells were inoculated onto 96-well plates were grown for 48 hours to 90%-100% confluence. C. parvum oocysts were then incubated for 10 minutes in 10% bleach at room temperature and washed with Dulbecco's phosphate-buffered saline. One thousand oocysts per well were applied to plates with Roswell Park Memorial Institute 1640 (RPMI) medium supplemented with 10% horse serum and 1% penicillin/streptomycin. Compounds of Formula (I), Formula (II), and Formula (III) were added to the plates at different concentrations and the plates were incubated for 48 hours. Following the incubation, the monolayers were lysed for 1 hour before a luciferase reagent was added, and relative luminescence units were determined.
# For certain compounds of Formula I, Formula II, and Formula III, EC50 values were calculated using curves calculated from Prism after analysis of C. parvum growth inhibition at 6 different concentrations: 10, 3.33, 1.11, 0.37, 0.12, and 0.04 μM. […] For certain compounds of Formula I, Formula II, and Formula III, single point inhibition values of 0-33% (activity level D), between 33% and 66% (activity level E), and between 67% and 100% (activity level F) are also shown in Table 1 below.
# [1] = single point inhibition @ 10 uM
# [2] = single point inhibition at 1 uM
# [3] = single point inhibition at 10 uM
Structure (SMILES),inhibition at 1 µM (single point inhibition @ 1 uM) [%],inhibition at 10 µM [1] [%],EC50 [µM],inhibition at 1 µM [2] [%],inhibition at 10 µM [3] [%]
"O=C(Nc1cc2[nH]c(-c3ccnc(OCCCF)n3)cc2cn1)c1cnn(CC2CCCO2)c1 (stereo in doubt) [Example 171, (S)-N-(2-(2-(3-fluoropropoxy)pyrimidin-4-yl)-1H-pyrrolo[3,2-c]pyridin-6-yl)-1-((tetrahydrofuran-2-yl)methyl)-1H-pyrazole-4-carboxamide]",0 to 33,67 to 100,,,
"Cn1cnc(-c2cc3cnc(NC4CCOCC4)cc3[nH]2)c1 [Example 123, 2-(1-methyl-1H-imidazol-4-yl)-N-(tetrahydro-2H-pyran-4-yl)-1H-pyrrolo[3,2-c]pyridin-6-amine]",,,> 1,,
"CCOc1nccc(-c2cc3cnc(NC(=O)c4cnn(C)c4)cc3n2CC(C)C)n1 [Example 316, N-(2-(2-ethoxypyrimidin-4-yl)-1-isobutyl-1H-pyrrolo[3,2-c]pyridin-6-yl)-1-methyl-1H-pyrazole-4-carboxamide]",,,,0 to 33,0 to 33
"CC(=O)Nc1cc2c(cn1)cc(C#N)n2C [Example 245, N-(2-cyano-1-methyl-1H-pyrrolo[3,2-c]pyridin-6-yl)acetamide]",,,,0 to 33,0 to 33
"N#Cc1cc(-c2cc3cnc(Nc4cccc(C5CCOCC5)c4)cc3[nH]2)ccn1 [Example 54, 4-(6-(3-(tetrahydro-2H-pyran-4-yl)phenylamino)-1H-pyrrolo[3,2-c]pyridin-2-yl)picolinonitrile]",0 to 33,67 to 100,> 1,,
"O=C(Nc1cc2[nH]c(-c3ccnc(OCCC(F)(F)F)n3)cc2cn1)c1cnn([C@H]2CC[C@H](O)CC2)c1 [Example 216, 1-((1r,4r)-4-hydroxycyclohexyl)-N-(2-(2-(3,3,3-trifluoropropoxy)pyrimidin-4-yl)-1H-pyrrolo[3,2-c]pyridin-6-yl)-1H-pyrazole-4-carboxamide]",,,,0 to 33,67 to 100
"CC(C)n1cc(C(=O)Nc2cc3[nH]c(-c4ccnc(NCC(F)(F)F)n4)cc3cn2)cn1 [Example 172, 1-isopropyl-N-(2-(2-(2,2,2-trifluoroethylamino)pyrimidin-4-yl)-1H-pyrrolo[3,2-c]pyridin-6-yl)-1H-pyrazole-4-carboxamide]",67 to 100,67 to 100,,,
"CCOc1nccc(-c2cc3cnc(NC(=O)c4cnn(C)c4)cc3[nH]2)n1 [Example 293, N-(2-(2-ethoxypyrimidin-4-yl)-1H-pyrrolo[3,2-c]pyridin-6-yl)-1-methyl-1H-pyrazole-4-carboxamide]",,,,0 to 33,0 to 33
"COc1nccc(-c2cc3cnc(NC(=O)c4cc(C)n(C)n4)cc3[nH]2)n1 [Example 292, N-(2-(2-methoxypyrimidin-4-yl)-1H-pyrrolo[3,2-c]pyridin-6-yl)-1,5-dimethyl-1H-pyrazole-3-carboxamide]",,,,0 to 33,0 to 33
"Cc1cc(-c2cc3cnc(NC(=O)c4cccc5cn[nH]c45)cc3[nH]2)ccn1 [Example 237, N-(2-(2-methylpyridin-4-yl)-1H-pyrrolo[3,2-c]pyridin-6-yl)-1H-indazole-7-carboxamide]",,,,0 to 33,33 to 66
"CCn1cc(C(=O)Nc2cc3[nH]c(-c4ccnc(OCC(F)(F)F)n4)cc3cn2)c(C)n1 [Example 242, 1-ethyl-3-methyl-N-(2-(2-(2,2,2-trifluoroethoxy)pyrimidin-4-yl)-1H-pyrrolo[3,2-c]pyridin-6-yl)-1H-pyrazole-4-carboxamide]",,,,0 to 33,0 to 33
"COc1nccc(-c2cc3cnc(NC(=O)c4cnn([C@H]5CC[C@H](O)CC5)c4)cc3[nH]2)n1 [Example 219, 1-((1r,4r)-4-hydroxycyclohexyl)-N-(2-(2-methoxypyrimidin-4-yl)-1H-pyrrolo[3,2-c]pyridin-6-yl)-1H-pyrazole-4-carboxamide]",,,,0 to 33,33 to 66
"CCOc1nccc(-c2cc3cnc(NC(=O)C4C5CCCC54)cc3[nH]2)n1 (stereo not shown) [Example 58, N-(2-(2-ethoxypyrimidin-4-yl)-1H-pyrrolo[3,2-c]pyridin-6-yl)bicyclo[3.1.0]hexane-6-carboxamide]",0 to 33,67 to 100,> 1,,
"Cc1cc(-c2cc3cnc(NC(=O)C(C)O)cc3[nH]2)ccn1 (stereo in doubt) [Example 307, (S)-2-hydroxy-N-(2-(2-methylpyridin-4-yl)-1H-pyrrolo[3,2-c]pyridin-6-yl)propanamide]",,,,0 to 33,0 to 33
"Cc1cc(-c2cc3cnc(NC(=O)[C@H]4C[C@@H](O)C4)cc3[nH]2)ccn1 [Example 194, (1s,3s)-3-hydroxy-N-(2-(2-methypyridin-4-yl)-1H-pyrrolo[3,2-c]pyridin-6-yl)cyclobutanecarboxamide]",0 to 33,67 to 100,,,
"CNC(=O)c1ccc(Nc2cc3[nH]c(-c4ccnc(C)c4)cc3cn2)cc1 [Example 190, N-methyl-4-(2-(2-methylpyridin-4-yl)-1H-pyrrolo[3,2-c]pyridin-6-ylamino)benzamide]",0 to 33,67 to 100,,,
"O=C(Nc1cc2[nH]c(-c3ccncc3)cc2cn1)[C@@H]1CCOC1 [Example 135, (R)-N-(2-(pyridin-4-yl)-1H-pyrrolo[3,2-c]pyridin-6-yl)tetrahydrofuran-3-carboxamide]",0 to 33,67 to 100,,,
"Cn1cc(-c2cc3cnc(NC4CCOCC4)cc3[nH]2)cn1 [Example 354, 2-(1-methyl-1H-pyrazol-4-yl)-N-(tetrahydro-2H-pyran-4-yl)-1H-pyrrolo[3,2-c]pyridin-6-amine]",,,> 1,,
"CCc1nccc(-c2cc3cnc(NC4CCOCC4)cc3n2C)n1 [Example 387, 2-(2-ethylpyrimidin-4-yl)-1-methyl-N-(tetrahydro-2H-pyran-4-yl)-1H-pyrrolo[3,2-c]pyridin-6-amine]",,,> 1,,
"COc1cccc(Nc2cc3[nH]c(-c4cnn(C)c4)cc3cn2)c1 [Example 197, N-(3-methoxyphenyl)-2-(1-methyl-1H-pyrazol-4-yl)-1H-pyrrolo[3,2-c]pyridin-6-amine]",0 to 33,67 to 100,,,
"COCCOc1ccc(C(=O)Nc2cc3[nH]c(-c4ccnc(C)c4)cc3cn2)cc1OC [Example 295, 3-methoxy-4-(2-methoxyethoxy)-N-(2-(2-methylpyridin-4-yl)-1H-pyrrolo[3,2-c]pyridin-6-yl)benzamide]",,,,0 to 33,0 to 33
"CC(C)n1cc(C(=O)Nc2cc3[nH]c(-c4ccnc(OCCF)n4)cc3cn2)cn1 [Example 146, N-(2-(2-(2-fluoroethoxy)pyrimidin-4-yl)-1H-pyrrolo[3,2-c]pyridin-6-yl)-1-isopropyl-1H-pyrazole-4-carboxamide]",0 to 33,67 to 100,,,
"O=C(Nc1cc2[nH]c(-c3ccnc(C(F)(F)F)n3)cc2cn1)C1C2CCCC21 (stereo not shown) [Example 199, N-(2-(2-(trifluoromethyl)pyrimidin-4-yl)-1H-pyrrolo[3,2-c]pyridin-6-yl)bicyclo[3.1.0]hexane-6-carboxamide]",,,,0 to 33,67 to 100
Cc1cc(-c2cc3cnc(NC4CCOCC4)cc3[nH]2)ncn1 [Example 38],,,> 1,,
"O=S(=O)(Nc1cc2[nH]c(C(F)(F)F)cc2cn1)C1CC1 [Example 106, N-(2-(trifluoromethyl)-1H-pyrrolo[3,2-c]pyridin-6-yl)cyclopropanesulfonamide]",,,> 1,,
"COc1cccc(Nc2cc3[nH]c(-c4cncn4C)cc3cn2)c1 [Example 204, N-(3-methoxyphenyl)-2-(1-methyl-1H-imidazol-5-yl)-1H-pyrrolo[3,2-c]pyridin-6-amine]",,,,33 to 66,67 to 100
"FC(F)(F)c1c[nH]c2cc(NC3CCOCC3)ncc12 [Example 376, N-(tetrahydro-2H-pyran-4-yl)-3-(trifluoromethyl)-1H-pyrrolo[3,2-c]pyridin-6-amine]",,,> 1,,
"Cc1cc(-c2cc3cnc(NC4CCOCC4)cc3[nH]2)nc(C)n1 [Example 393, 2-(2,6-dimethylpyrimidin-4-yl)-N-(tetrahydro-2H-pyran-4-yl)-1H-pyrrolo[3,2-c]pyridin-6-amine]",,,> 1,,
"Cc1cc(-c2cc3cnc(NC4CCCOC4)cc3[nH]2)ccn1 (stereo in doubt) [Example 355, (S)-2-(2-methylpyridin-4-yl)-N-(tetrahydro-2H-pyran-3-yl)-1H-pyrrolo[3,2-c]pyridin-6-amine]",,,> 1,,
